Values quoted from earlier work, collected in PMC11634579, “Network pharmacology, experimental validation and pharmacokinetics integrated strategy to reveal pharmacological mechanism of goutengsan on methamphetamine dependence” (Frontiers in Pharmacology, 2024).

Set-up: method as in Ru et al., 2014
Settings: obtained from TCMSP database; ref Ru et al., 2014; cited from earlier work
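For BBB (blood–brain–barrier) in this document: unitless TCMSP predicted score with screening cut-off BBB at least 0.3.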

Molecule	BBB (blood–brain–barrier)	OB% (oral bioavailability) [%]
CCCCC/C=C\C/C=C\CCCCCCCC(=O)OCC [Mandenol]	1.14	42.00
CCCCCCC=CCC=CCCCCCCCCC(=O)O [10,13-eicosadienoic acid]	0.82	39.99
Medicarpin	0.53	49.22
O=c1oc2ccccc2c2oc3ccccc3c(=O)c12 [Frutinone A]	0.46	65.90
COc1c2ccoc2c(OCC=C(C)C)c2oc(=O)ccc12 [Phellopterin]	0.48	40.19
CC[C@H](CC[C@@H](C)[C@H]1CC[C@H]2[C@@H]3CC=C4C[C@@H](O)CC[C@]4(C)[C@H]3CC[C@]12C)C(C)C [Beta-sitosterol]	0.99	–
CC[C@@H](CC[C@@H](C)[C@H]1CC[C@H]2[C@@H]3CC=C4C[C@@H](O)CC[C@]4(C)[C@H]3CC[C@]12C)C(C)C [Clionasterol]	1.14	–
CC(C)=CCc1c2ccoc2c(O)c2oc(=O)ccc12 [Prangenidin]	0.50	36.31
CC(C)=CCOc1c2occc2cc2ccc(=O)oc12 [Ammidin]	0.92	34.55
CC(C)[C@@H](C)/C=C/[C@@H](C)[C@H]1CC[C@H]2C3=CC[C@H]4C[C@@H](O)CC[C@]4(C)[C@H]3CC[C@]12C [5-dihydroergosterol]	0.91	43.51
C=C[C@H]1CN2CC[C@]3(C(=O)Nc4ccccc43)[C@@H]2C[C@@H]1/C(=C\OC)C(=O)OC [Corynoxeine]	0.50	57.13
Oc1ccc2c(c1)OC[C@H]1c3cc4c(cc3O[C@@H]21)OCO4 [Inermine]	0.40	75.18
CC1(C)CC[C@]2(C(=O)O)CC[C@]3(C)C(=CC[C@@H]4[C@@]5(C)CC[C@H](O)[C@@](C)(CO)[C@@H]5CC[C@]43C)[C@@H]2C1 [Hederagenin]	0.96	–
CCCCCCCCOC(=O)c1ccccc1C(=O)OCCCC [Butyl octyl phthalate]	0.60	43.74
COc1ccc2c(=O)c(-c3ccccc3)c(C)oc2c1 [7-methoxy-2-methyl isoflavone]	0.56	42.56
COc1ccc(C2COc3c(ccc4c3C=CC(C)(C)O4)C2)c(O)c1O (stereo not shown) [3′-hydroxy-4′-O-methylglabridin]	0.73	43.71
COc1c(O)ccc(C2COc3c(ccc4c3C=CC(C)(C)O4)C2)c1O (stereo not shown) [3′-methoxyglabridin]	0.47	46.16
CCCCC/C=C\C/C=C\C/C=C\C/C=C\CCCC(=O)O [Arachidonate]	0.58	45.57
CC(C)[C@@H](C)/C=C/[C@@H](C)[C@H]1CC[C@@H]2[C@]1(C)CC[C@H]1[C@]23C=C[C@]2(C[C@@H](O)CC[C@]12C)OO3 [Ergosterol peroxide]	0.34	40.36
CCCCCCCCCCCCCCC=CCCCC(=O)O [Icos-5-enoic acid]	1.09	30.70
CC(C)=CCOc1c2ccoc2cc2oc(=O)ccc12 [Isoimperatorin]	0.66	45.46

Molecule	BBB (blood–brain–barrier)	OB% (oral bioavailability) [%]
CCC(CC[C@@H](C)[C@H]1CC[C@H]2[C@@H]3CCC4=CC(=O)CC[C@]4(C)[C@H]3CC[C@]12C)C(C)C (stereo partly shown) [24-ethylcholest-4-en-3-one]	1.22	36.08
CC[C@H](/C=C/[C@@H](C)[C@H]1CC[C@H]2[C@@H]3CC=C4C[C@@H](O)CC[C@]4(C)[C@H]3CC[C@]12C)C(C)C [Stigmasterol]	1.00	43.83
CCCCC[C@H](O)CC(=O)CCc1ccc(O)c(OC)c1 [6-Gingerol]	1.22	61.22
COc1cc(CNC(=O)CCCCCCC(C)C)ccc1O [Dihydrocapsaicin]	0.47	47.07
COC(=O)C1=CO[C@@H](C)[C@@H]2CN3CCc4c([nH]c5ccccc45)[C@@H]3C[C@H]12 [Tetrahydroalstonine]	0.33	32.42
CC(C)=CCC[C@@H](C)[C@H]1CC[C@@]2(C)[C@@H]3CC[C@H]4C(C)(C)[C@@H](O)CC[C@@]45C[C@@]35CC[C@]12C [Cycloartenol]	1.33	–
Oc1ccc2c(c1)OC[C@H]1c3cc4c(cc3O[C@@H]21)OCO4 [Inermin]	0.36	65.83
COc1cc(O)cc2c1[C@@H]1Oc3c(ccc(O)c3CC=C(C)C)[C@@H]1CO2 [1-methoxyphaseollidin]	0.48	69.98
CC1(C)C=Cc2c(ccc3c2OC[C@@H](c2ccc(O)cc2O)C3)O1 [Glabridin]	0.36	53.25
C=C[C@H]1CN2CCc3c([nH]c4ccccc34)[C@H]2C[C@@H]1/C(=C\OC)C(=O)OC [delta (sup 18)-Hirsutine]	0.76	41.64
CC1(C)C=Cc2cc([C@@H]3CC(=O)c4ccc5c(c4O3)C=CC(C)(C)O5)ccc2O1 [Xambioona]	0.52	54.85
CC1(C)C=Cc2c(ccc3c2OC[C@H]2c4ccc(O)cc4O[C@@H]32)O1 [Shinpterocarpin]	0.68	80.30
C=C(C(=O)OC1CC2NC(C1)C1OC21)c1ccccc1 (stereo not shown) [Aponorhyoscine]	0.40	66.65
CC[C@H](CC[C@@H](C)[C@H]1CC[C@H]2[C@@H]3CC=C4C[C@@H](O)CC[C@]4(C)[C@H]3CC[C@]12C)C(C)C [Sitosterol]	0.87	–
COc1cc2c(cc1OC)[C@H]1[C@@H](C)c3ccc4c(c3CN1CC2)OCO4 [Cavidine]	0.63	35.64
CC(C)=CCc1c(O)cc(O)c2c1O[C@H](c1ccccc1)CC2=O [Glabranin]	0.31	52.90
COc1c2ccoc2c(OCC=C(C)C)c2oc(=O)ccc12 [Phelloptorin]	0.43	43.39
CCCCCC=CCC=CCCCCCCCCCC(=O)OC [Methyl icosa-11,14-dienoate]	1.10	39.67
CC[C@H]1CN2CCc3c([nH]c4ccccc34)[C@H]2C[C@@H]1/C(=C\OC)C(=O)OC [Hirsutine]	0.78	34.44
CC1(C)C=Cc2c(ccc([C@@H]3COc4cc(O)ccc4C3)c2O)O1 [Phaseolinisoflavan]	0.46	32.01
CC[C@H]1CN2CC[C@@]3(C(=O)Nc4ccccc43)[C@@H]2C[C@@H]1/C(=C\OC)C(=O)OC [Isorhyncophylline]	0.33	47.31
